According to ChEMBL document CHEMBL1135216, “New 2-(1-adamantylcarbonyl)pyridine and 1-acetyladamantane thiosemicarbazones-thiocarbonohydrazones: cell growth inhibitory, antiviral and antimicrobial activity evaluation” (Bioorg Med Chem Lett, 2002):
In brackets after ≈: the same amount, converted by molar mass.

Tests used:
CCRF-CEM [1] = assay: Tested for the inhibitory concentration against cell growth of human leukemic cell line CCRF-CEM; type: functional
CCRF-CEM [2] = assay: Tested for the concentration required to reduce the viability of leukemia cells by 50% against cell growth of T cell leukemia cell line CCRF-CEM using MTT assay; type: functional; conditions: Homo sapiens
CCRF-CEM [3] = assay: Tested for the inhibitory concentration against cell growth of Tcell leukemic cell line CCRF-CEM using MTT assay; type: functional; conditions: Homo sapiens
E6SM [4] = assay: Tested for antiviral activity against VSV-virus in human embryonic skin muscle fibroblasts; type: functional; conditions: Muscle tissue
E6SM [5] = assay: Tested for antiviral activity against herpes simplex virus type 1(KOS) in E6SM cell line(human embryonic skin-muscle fibroblasts); type: functional
E6SM [6] = assay: Tested for antiviral activity against vaccinia virus in human embryonic skin muscle fibroblast; type: functional; conditions: Muscle tissue
E6SM [7] = assay: The compound was tested for antiviral activity against VSV-virus in human epithelial cells; type: functional
E6SM [8] = assay: Tested for cytotoxic activity in human embryonic skin muscle fibroblast (E6SM); type: functional; conditions: Muscle tissue
E6SM [9] = assay: Antiviral activity against thymidine kinase-deficient (TK-HSV-1)virus in E6SM cell line(human embryonic skin-muscle fibroblasts); type: functional
Escherichia coli = assay: Tested for the antimicrobial activity against Escherichia coli ATCC 25922; type: functional
HEL [10] = assay: Tested for cytotoxic activity in human embryonic lung fibroblast (HEL); type: functional
HEL [11] = assay: Tested for antiviral activity against human cytomegalovirus (AD-169) in human embryonic lung fibroblasts; type: functional
HEL [12] = assay: Tested for antiviral activity against thymidine kinase deficient Varicella zoster virus in human embryonic lung fibroblasts; type: functional
HEL [13] = assay: Tested for antiviral activity against thymidine kinase wild type Varicella zoster virus in human embryonic lung fibroblast; type: functional
HeLa [14] = assay: Tested for antiviral activity against coxsackie-B4 virus in human epithelial cell line; type: functional
HL-60 [15] = assay: Tested for the inhibitory concentration against cell growth of human leukemic cell line HL60; type: functional
HL-60 [16] = assay: Tested for the concentration required to reduce the viability of leukemia cells by 50% against cell growth of HL60 acute myeloid leukemia using MTT assay; type: functional; conditions: Homo sapiens, read-out: LC50 (the source's name)
HL-60 [17] = assay: Tested for the inhibitory concentration against cell growth of HL60 acute myeloid leukemia using MTT assay; type: functional; conditions: Homo sapiens
HeLa [18] = assay: Tested for cytotoxic activity in human epithelial cell line (HeLa); type: functional
HuT78 [19] = assay: Tested for the inhibitory concentration against cell growth of human leukemic cell line HuT78; type: functional
HuT78 [20] = assay: Tested for the concentration required to reduce the viability of leukemia cells by 50% against cell growth of HuT78 T lymphoma using MTT assay; type: functional; conditions: Homo sapiens
HuT78 [21] = assay: Tested for the inhibitory concentration against cell growth of HuT78 T lymphoma using MTT assay; type: functional; conditions: Homo sapiens
K562 [22] = assay: Tested for the concentration required to reduce the viability of leukemia cells by 50% against cell growth of K562 chronic myeloid leukemia using MTT assay; type: functional; conditions: Homo sapiens, read-out: LC50 (the source's name)
K562 [23] = assay: Tested for the inhibitory concentration against cell growth of K562 chronic myeloid leukemia using MTT assay; type: functional; conditions: Homo sapiens
K562 [24] = assay: Tested for the inhibitory concentration against cell growth of human leukemic cell line K562; type: functional
Klebsiella pneumoniae = assay: Tested for the antimicrobial activity against Klebsiella pneumoniae ATCC 13883; type: functional
MOLT-4 [25] = assay: Tested for the inhibitory concentration against cell growth of human leukemic cell line MOLT-4; type: functional
MT4 [26] = assay: Tested for effective concentration required to protect MT-4 cells against the cytopathicity of HIV-1(IIIB); type: functional; conditions: Homo sapiens, read-out: LC50 (the source's name)
MT4 [27] = assay: Tested for effective concentration required to protect MT-4 cells against the cytopathicity of HIV-2(ROD); type: functional, cell-based; conditions: Homo sapiens
MOLT-4 [28] = assay: Tested for the concentration required to reduce the viability of leukemia cells by 50% against cell growth of T cell leukemia cell line MOLT-4 using MTT assay; type: functional; conditions: Homo sapiens
MOLT-4 [29] = assay: Tested for the inhibitory concentration against cell growth of Tcell leukemic cell line MOLT-4 using MTT assay; type: functional; conditions: Homo sapiens
RPMI-8226 [30] = assay: Tested for the inhibitory concentration against cell growth of human leukemic cell line RPMI8226; type: functional
RPMI-8226 [31] = assay: Tested for the concentration required to reduce the viability of leukemia cells by 50% against cell growth of RPMI8226 multiple myeloma using MTT assay; type: functional; conditions: Homo sapiens, read-out: LC50 (the source's name)
RPMI-8226 [32] = assay: Tested for the inhibitory concentration against cell growth of […] multiple myeloma using MTT assay; type: functional; conditions: Homo sapiens
Staphylococcus aureus = assay: Tested for the antimicrobial activity against Staphylococcus aureus ATCC 6538; type: functional
[33] = tested on: Staphylococcus epidermidis; assay: Tested for the antimicrobial activity against Staphylococcus epidermidis ATCC 12228; type: functional
Staphylococcus hominis = assay: Tested for the antimicrobial activity against Staphylococcus hominis ATCC 27844; type: functional
Vero [34] = assay: Tested for cytotoxic activity in African green monkey kidney cells (Vero); type: functional; conditions: Chlorocebus sabaeus
Vero [35] = assay: Tested for antiviral activity against Punta toro virus in African green monkey kidney cell (Vero); type: functional; conditions: Chlorocebus sabaeus
Vero [36] = assay: Tested for antiviral activity against Reo-1 virus in African green monkey kidney cell (Vero); type: functional; conditions: Chlorocebus sabaeus
Vero [37] = assay: Tested for antiviral activity against Sindbis virus in African green monkey kidney cell (Vero); type: functional; conditions: Chlorocebus sabaeus
Vero [38] = assay: Tested for antiviral activity against coxsackie B-4 virus in African green monkey kidney cell (Vero); type: functional; conditions: Chlorocebus sabaeus
Vero [39] = assay: Tested for antiviral activity against parainfluenza virus in african green monkey kidney cell (Vero); type: functional; conditions: Chlorocebus sabaeus
MT4 [40] = assay: Tested for cytotoxic concentration required to reduce the viability of MT-4 cells by 50%; type: functional, cell-based; conditions: Homo sapiens, read-out: EC50 (the source's name)
E6SM [41] = assay: Tested for antiviral activity against thymidine kinase-deficient (TK-HSV-2G) virus in E6SM cell line(human embryonic skin-muscle fibroblasts)

S=C(N/N=C(/c1ccccn1)C12CC3CC(CC(C3)C1)C2)NNC(=S)c1ccc(Cl)cc1Cl
GI50 (CCRF-CEM [1]): 66.3 µM | TGI (CCRF-CEM [2]): 100 µM | TGI (CCRF-CEM [3]): 100 µM | MIC (E6SM [4]): > 16 µg/mL | MIC (E6SM [5]): > 16 µg/mL | MIC (E6SM [6]): > 16 µg/mL | MIC (E6SM [7]): > 16 µg/mL | MCC (E6SM [8]): 80 µg/mL | MIC (E6SM [9]): > 16 µg/mL | MIC (Escherichia coli): > 1880 µg/mL | MCC (HEL [10]): 5 µg/mL | MIC (HEL [11]): > 2 µg/mL | MIC (HEL [12]): > 2 µg/mL | MIC (HEL [13]): > 2 µg/mL | MIC (HeLa [14]): > 3.2 µg/mL | GI50 (HL-60 [15]): 3.6 µM | CC50 (HL-60 [16]): 31.9 µM | TGI (HL-60 [17]): 7 µM | MCC (HeLa [18]): 16 µg/mL | GI50 (HuT78 [19]): 23 µM | TGI (HuT78 [20]): 100 µM | TGI (HuT78 [21]): 81 µM | CC50 (K562 [22]): 100 µM | TGI (K562 [23]): 100 µM | GI50 (K562 [24]): 100 µM | MIC (Klebsiella pneumoniae): > 1880 µg/mL | GI50 (MOLT-4 [25]): 31.4 µM | EC50 (MT4 [26]): > 3 µM | EC50 (MT4 [27]): > 3 µM | TGI (MOLT-4 [28]): 100 µM | TGI (MOLT-4 [29]): 100 µM | GI50 (RPMI-8226 [30]): 4.6 µM | CC50 (RPMI-8226 [31]): 100 µM | TGI (RPMI-8226 [32]): 29.5 µM | MIC (Staphylococcus aureus): 117 µg/mL (≈ 226 µM) | MIC [33]: 117 µg/mL (≈ 226 µM) | MIC (Staphylococcus hominis): 117 µg/mL (≈ 226 µM) | MCC (Vero [34]): 16 µg/mL | MIC (Vero [35]): > 3.2 µg/mL | MIC (Vero [36]): > 3.2 µg/mL | MIC (Vero [37]): > 3.2 µg/mL | MIC (Vero [38]): > 3.2 µg/mL | MIC (Vero [39]): > 3.2 µg/mL | CC50 (MT4 [40]): 2.6 µM | MIC (E6SM [41]): > 3.2 µg/mL
